Source: US20240384350A1, “METHODS OF TREATING CANCER WITH KINASE INHIBITORS” (BOARD OF REGENTS, THE UNIVERSITY OF TEXAS SYSTEM, priority 2021, published 2024)

Experiments:
[1] = system: NSCLC harboring atypical EGFR mutations; conditions: Phase II KCSG-LU15-09; treatment-naive patients harboring atypical EGFR mutations; cited from earlier work
[2] = system: NSCLC tumors expressing EGFR G719S; assay: PDX tumor growth, EGFR G719S model; type: in vivo, NSG mice; conditions: mice harboring PDXs with mutations
Experimental: Dot plot of mutant/WT IC50 values of Ba/F3 cells expressing PACC mutations and treated with indicated classes of EGFR TKIs. […] Bars are representative of average mutant/WT IC50 values±SEM for each class of EGFR TKI and all PACC cell lines. p-values were determined by ANOVA analysis with unequal SD as determined by Brown-Forsythe test to determined differences in SD. Holm-Sidak's multiple comparisons test was used to determine differences between groups. […] Tumors were measured three times per week and symbols are average of tumor volumes±SEM. Mice were randomized into six groups. Mice received drug 5 days per week, and mice were euthanized at day 28 to harvest tumors. […] Heat map with unsupervised hierarchical clustering of log (Mutant/WT) ratios from Ba/F3 cells expressing indicated mutations after 72 hours of indicated drug treatment. Squares are representative of the average of n=3 replicates. […] Bars are representative of average mutant/WT IC50 values±SEM for each class of EGFR TKI and indicated cell lines. p-values were determined by ANOVA analysis with unequal SD as determined by Brown-Forsythe test to determined differences in SD. […]
Dot plot of percent change in tumor volume on day 28 of tumors described in FIG. 3C. […] Statistical differences were determined by ordinary one-way ANOVA with post-hoc Tukey's multiple comparisons test to determined differences between groups. […]

[3] = system: classical EGFR mutant NSCLC; conditions: Phase III; treatment-naive patients; cited from earlier work

SMILES: C=CC(=O)Nc1cc(Nc2nccc(-c3cn(C)c4ccccc34)n2)c(OC)cc1N(C)CCN(C)C [Osimertinib]
- ORR [1]: 50%
- mPFS [1]: 8.2 months
- tumor sensitivity in vivo [2]: resistant
- median overall survival (mOS) [3]: 38.6 months
- median progression free survival (mPFS) [3]: 18.9 months
- objective response rate (ORR) [3]: 80%
